Experimental data as given in PMC10666768, “Optimized peptide nanofibrils as efficient transduction enhancers for in vitro and ex vivo gene transfer” (Frontiers in Immunology, 2023).
“Also recorded” adds a separate entry of the source. Peptide text beside a SMILES is read from it.

How the values were obtained:
[1] = Chemical stability of PNFs by HPLC and MALDI-TOF MS; type: physicochemical; conditions: 2 mg/ml PNFs in PBS, RT or 37°C, 10 min, 1 h, 24 h, 10 d; reversed-phase C18 HPLC, UV 214 nm
Experimental: RM-8 and D4 were prepared at 2 mg/ml in PBS and were incubated at room temperature (RT) or 37°C for 10 min, 1 hour, 24 hours, and 10 days. Aliquots (25 µL) of both samples were separated after 10 minutes, 1 hour, 24 hours, and 10 days and centrifuged at 13,000 x g for one minute. Supernatants were diluted with 100 µL 10% acetic acid, whereas the pellets were dissolved in 125 µL 6 M guanidinium chloride. All samples were analyzed in an Agilent 1100 Series HPLC system, using a reversed-phase BioBasicTM 18-HPLC column (Thermo Scientific) of dimensions 2.1 x 100 mm and particle size of 5 µm. Gradient elution was used for elution as follows (RM-8): 0 min/5%B, 1 min/20%B, and 15 min/40%B; and for D4: 0 min/5%B, 1 min/15%B, and 15 min/35/%B), being A, 0. 1% TFA in water, and B, 0.1% TFA in acetonitrile. The flow rate was 0.5 mL/min, and the detection was monitored online by UV absorption at 214 nm. ChemStation (version B.04.03, Agilent) was used for data acquisition and the HPLC system’s control.
Mass spectra were obtained with an Axima Confidence MALDI-TOF mass spectrometer (Shimadzu). Measurements were performed in positive ion reflectron mode. The mass range was 100–10000 Da. For each sample, 20 shots were accumulated per profile (100 profiles per spectra) using a laser power of 42% and a laser frequency of 50 Hz. TOFMix MALDI kit (Shimadzu) was used for external mass calibration. […]

[2] = test system: NF-κB pathway; test: THP1-Dual cells, NF-κB pathway (SEAP); type: cell-based; conditions: 24 h
Experimental: To analyze if PNFs stimulate an immune response, different PNFs concentrations (5, 10, 30 and 50 µg/ml) and 0.1 µg/ml lipopolysaccharide (LPS, InvivoGen, Cat: tlrl-eklps) as a positive control were incubated with 70,000 THP1-Dual cells, a monocyte cell line that allows the simultaneous analysis of the NF-κB and interferon regulatory factor (IRF) pathway, which are major effectors of the innate immune response ([45]). After 24 h, cellular supernatants were analyzed for the activation of the NF-κB pathway by measuring the activity of secreted alkaline phosphatase (SEAP). Therefore, 20 µl supernatant was mixed with 120 µl Alkaline Phosphatase Blue Microwell Substrate (Sigma Aldrich, Cat: AB0100-1KT). After 10 min, 30 µl Alkaline Phosphatase Stop Solution (Sigma Aldrich, Cat: A5852) was added and adsorption at 620 nm was measured using VersaMax Microplate Reader (Molecular Devices). For analysis of IRF pathway, secreted Gaussia Luciferase was measured. 25 µl supernatant was transferred to a white 96 well microtiter plate and Gaussia substrate (82.6 µg/ml Colenterazine, PJK, Cat: 102172) was automatically added according to manufacturer’s protocol and Luminescence was measured by Orion II Microplate Luminometer (Berthold).

[3] = test system: human T cells; conditions: trypan blue after 7 days
[4] = test system: human NK cells; conditions: 4-day incubation, propidium iodide, three donors
Experimental: NK cells were isolated from buffy coats of healthy donors by standard density-gradient centrifugation, using Ficoll-Paque (VWR, Cat: 17-1440-03) using the RosetteSep™ Human NK Cell Enrichment Cocktail ([sequence] Technologies, Cat: 15065). NK cells were cultured at 1×10^6 cells/ml in NK MACS medium (Miltenyi Biotec, Cat: 130-114-429) with 5% human AB serum (Sigma Aldrich, Cat: H4522-100ML), 500 U/ml IL-2 (Peprotech, Cat: 200-02) and 140 U/ml IL-15 (Peprotech, Cat: 200-15). […] 1.25×10^5 NK cells were seeded per well in a 48-well plate. […] Propidium Iodide (PI) (Miltenyi Biotec, Cat: 130-093-233) staining was used to determine the viability of NK cells.

[5] = test system: TZM-bl cells
Experimental: To determine the effect of peptides on cellular metabolic activity, MTT (Thiazolyl blue tetrazolium bromide) Cell Growth Assay (Merck, Cat: CT02) and CellTiter-Glo Luminescent Cell Viability Assay (Promega, Cat: G7571) were performed. 10,000 TZM-bl cells or 50,000 Jurkat cells were seeded into 96-well plates and treated with indicated concentrations of peptides. For TZM-bl cells, the supernatants were removed after three days and 100 µl MTT (0.5 mg/ml) was added and incubated for 2.5 hours. For Jurkat cells, supernatants were removed after two days, and cells were incubated with 40 μl MTT (1 mg/ml) for 5 hours. Then the MTT solution was removed, and 100 µl 1:1 DMSO-Ethanol was added. The absorption was measured at 590 nm with baseline-corrected at 650 nm using VersaMax Microplate Reader (Molecular Devices). The CellTiter-Glo assay was performed according to the manufacturing protocol. 100 μl CellTiter-Glo Reagent 1:1 diluted in PBS (Gibco, 14200075) was added to pelleted Jurkat cells for 10 min followed by transferring 50 µl to white microplate, and luminescence was recorded by Orion microplate luminometer (Berthold).
(A) TZM-bl cells were treated […]
with different peptide concentrations. MTT assay was performed three days later. […] The cell viability in % was calculated by normalizing sample values to untreated control which was set to 100 %. […]

| SMILES | Chemical stability by HPLC [1] | Activation of NF-κB pathway at 50 µg/ml [2] | T cell viability after GALV-RV transduction ([3]; four donors) | NK cell viability [4] | Cytotoxicity, TZM-bl cells [5] | Cytotoxic effect on T cells, GALV-RV transduction ([3]; two donors) | NK cell viability at highest concentration ([4]; 30 µg/ml) |
| --- | --- | --- | --- | --- | --- | --- | --- |
| CC[C@H](C)[C@H](NC(=O)[C@H](CCCNC(=N)N)NC(=O)[C@@H](N)CCCNC(=N)N)C(=O)N[C@@H](Cc1ccccc1)C(=O)N[C@H](C(=O)N[C@H](C(=O)N[C@@H](CO)C(=O)N[C@@H](CCSC)C(=O)O)[C@@H](C)CC)[C@@H](C)CC [D4] (H-RRIFIISM-OH) | chemically stable for 10 days; also recorded: single peak with unchanged retention time | significant activation of the NF-kB pathway | neither D4 PNF nor the other transduction enhancers affected T cell viability | did not show any impact on cell viability | – | – | – |
| CC[C@H](C)[C@H](NC(=O)[C@H](Cc1ccccc1)NC(=O)[C@@H](NC(=O)[C@@H](NC(=O)[C@@H](N)CCCNC(=N)N)[C@@H](C)O)[C@@H](C)CC)C(=O)N[C@H](C(=O)N[C@@H](CO)C(=O)N[C@@H](CCSC)C(=O)N[C@@H](Cc1ccc(O)cc1)C(=O)N[C@@H](CCCCN)C(=O)O)[C@@H](C)CC [RK-10] (H-RTIFIISMYK-OH) | – | – | – | – | not being cytotoxic | – | – |
| CC[C@H](C)[C@H](NC(=O)[C@H](Cc1ccccc1)NC(=O)[C@@H](NC(=O)[C@@H](NC(=O)[C@@H](N)CCCNC(=N)N)[C@@H](C)O)[C@@H](C)CC)C(=O)N[C@H](C(=O)N[C@@H](CO)C(=O)N[C@@H](CCSC)C(=O)O)[C@@H](C)CC [RM-8] (H-RTIFIISM-OH) | chemically stable over time; also recorded: chemically stable for 10 days | – | – | – | not being cytotoxic | not showing any cytotoxic effect | slightly reduced cell viability |
